Like-named read-outs stand apart in the source and are kept apart here.
Experiments:
[1] = tested on: P. aeruginosa; assay: Initial MIC, microbroth dilution (CLSI), avibactam 4 mg/L; type: cell-based
Method: (§1) All MIC determinations including those performed in the checkerboard assay were done in cation-adjusted Mueller-Hinton broth (purchased from Becton Dickinson, Oxford UK).
(§2) Initial MIC data were determined by microbroth dilution methods as recommended by CLSI (2012b). Checkerboards were made in accordance with the method given by Pillai et. al., ? Antimicrobial Combinations in Antibiotics, LABORATORY MEDICINE (Lorian Ed., 3rd Ed. (2003)) p. 365-440 as per standard microbroth dilution tests but with agents in combination. […] A final avibactam concentration of 4 mg/L was used throughout the study. Antibacterial agents were combined into microtitre plates using the Evolution III liquid handling system.

[2] = tested on: K. pneumoniae; assay: as above; type: cell-based
Method: as §1, §2

[3] = tested on: E. coli; assay: as above; type: cell-based
From the text: (§3) All MIC determinations including those performed in the checkerboard assay were done in cation-adjusted Mueller-Hinton broth (purchased from Becton Dickinson, Oxford UK). […]

[4] = tested on: E. cloacae; assay: as above; type: cell-based
From the text: as §3

[5] = tested on: S. aureus; assay: as above; type: cell-based
From the text: as §3

[6] = tested on: E. faecalis; assay: as above; type: cell-based; conditions: Enterococcus faecalis
From the text: as §3

[7] = tested on: S. aureus; assay: MIC, CLSI broth microdilution in CAMHB with 0-10% pulmonary surfactant (avibactam fixed at 4 μg/mL in combination); type: cell-based, Staphylococcus aureus; conditions: for MIC: Staphylococcus aureus, read-out: MIC
Method: The bacterial strains used in this testing were part of the microbiological culture collection housed at AstraZeneca R&D Boston (AstraZeneca Research Collection, designated ARC). The panel of bacterial isolates used for this testing was comprised of five CLSI QC reference strains and the remainder were either recent clinical isolates expressing β-lactamases or isolates from the primary bacterial screening panels.
MIC values were determined using the CLSI broth microdilution methodology with slight variation. Stock compound mother plates were prepared and used to spot 2 μL aliquots of serial 2-fold drug dilutions to columns 1-11 of 96-well daughter plates using a Perkin-Elmer MiniTrak™ MultiPosition dispenser. […] An inoculum volume of 100 μL (5×10E^5 CFU/mL) in CAMHB containing 0, 1, 2.5, 5, or 10% pulmonary surfactant was added using a multichannel Finnpipette® to each well of the 96-well plate.
The minimum inhibitory concentration (MIC) values against each organism/drug combination were determined using broth microdilution methodology according to CLSI guidelines. The recommended reference bacterial strains for each test group and reference compounds were incorporated into each test. For Gram-negatives, the reference bacterial strains were Escherichia coli ATCC 25922, E. coli ATCC 35218, Klebsiella pneumoniae ATCC 700603, and Pseudomonas aeruginosa ATCC 27853. Staphylococcus aureus ATCC 29213 was the reference bacterial strain for the Gram-positives.
MIC values for individual isolates were read visually. The MICs for each compound or combination in pulmonary surfactant was compared to the compound or combination tested in CAMHB alone.

NC[C@H]1O[C@H](O[C@H]2[C@H](O)[C@@H](O[C@H]3O[C@H](CO)[C@@H](O)[C@H](N)[C@H]3O)[C@H](N)C[C@@H]2N)[C@H](N)C[C@@H]1O [Tobramycin]
0.5 µg/mL: MIC ([1]; Pseudomonas aeruginosa, isolate 17 P. aeruginosa Derepressed AmpC, read-out: MIC) | MIC ([1]; Pseudomonas aeruginosa, isolate 18 P. aeruginosa Derepressed AmpC, read-out: MIC) | MIC ([3]; Escherichia coli, isolate 4 E. coli Basal MICs, read-out: MIC) | MIC ([5]; Staphylococcus aureus, isolate 23 S. aureus Basal MICs, Penicillinase+, read-out: MIC)
4 µg/mL: MIC ([2]; Klebsiella pneumoniae, isolate 10 K. pneumoniae TEM-4, read-out: MIC)
64 µg/mL: MIC ([3]; Escherichia coli, isolate 5 E. coli CTX-M-15, read-out: MIC) | MIC ([3]; Escherichia coli, isolate 8 E. coli SHV-2, read-out: MIC)
1 µg/mL: MIC ([1]; Pseudomonas aeruginosa, isolate 19 P. aeruginosa PER, read-out: MIC) | MIC ([3]; Escherichia coli, isolate 6 E. coli TEM-4, read-out: MIC) | MIC ([3]; Escherichia coli, isolate 7 E. coli SHV-12, read-out: MIC)
16 µg/mL: MIC ([6]; isolate 25 E. faecalis Basal MICs, read-out: MIC) | MIC ([6]; isolate 26 E. faecalis Basal MICs, read-out: MIC)
0.12 µg/mL: MIC ([2]; Klebsiella pneumoniae, isolate 15 K. pneumoniae KPC-2, read-out: MIC)
0.25 µg/mL: MIC ([1]; Pseudomonas aeruginosa, isolate 16 P. aeruginosa Basal MICs, read-out: MIC) | MIC ([2]; Klebsiella pneumoniae, isolate 9 K. pneumoniae Basal MICs, read-out: MIC) | MIC ([2]; Klebsiella pneumoniae, isolate 11 K. pneumoniae CTX-M-15, read-out: MIC) | MIC ([2]; Klebsiella pneumoniae, isolate 12 K. pneumoniae SHV-12, read-out: MIC) | MIC ([2]; Klebsiella pneumoniae, isolate 13 K. pneumoniae KPC-3, read-out: MIC) | MIC ([4]; Enterobacter cloacae, isolate 1 E. cloacae Basal MICs, read-out: MIC) | MIC ([4]; Enterobacter cloacae, isolate 2 E. cloacae Derepressed AmpC, read-out: MIC) | MIC ([4]; Enterobacter cloacae, isolate 3 E. cloacae Derepressed AmpC, read-out: MIC) | MIC ([5]; Staphylococcus aureus, isolate 22 S. aureus Basal MICs, read-out: MIC) | MIC ([5]; Staphylococcus aureus, isolate 24 S. aureus Basal MICs, Penicillinase+, read-out: MIC)
8 µg/mL: MIC ([1]; Pseudomonas aeruginosa, isolate 21 P. aeruginosa KPC-2, read-out: MIC) | MIC ([2]; Klebsiella pneumoniae, isolate 14 K. pneumoniae KPC-3, read-out: MIC) | MIC ([6]; isolate 27 E. faecalis Basal MICs, read-out: MIC)
256 µg/mL: MIC ([1]; Pseudomonas aeruginosa, isolate 20 P. aeruginosa KPC-2, read-out: MIC)

CN[C@H](CC(C)C)C(=O)N[C@H]1C(=O)N[C@@H](CC(N)=O)C(=O)N[C@H]2C(=O)N[C@H]3C(=O)N[C@H](C(=O)N[C@H](C(=O)O)c4cc(O)cc(O)c4-c4cc3ccc4O)[C@H](O)c3ccc(c(Cl)c3)Oc3cc2cc(c3O[C@@H]2O[C@H](CO)[C@@H](O)[C@H](O)[C@H]2O[C@H]2C[C@](C)(N)[C@H](O)[C@H](C)O2)Oc2ccc(cc2Cl)[C@H]1O [Vancomycin]
2 µg/mL: MIC ([6]; isolate 26 E. faecalis Basal MICs) | MIC ([6]; isolate 27 E. faecalis Basal MICs)
1 µg/mL: MIC ([5]; Staphylococcus aureus) | MIC ([5]; isolate 23 S. aureus Basal MICs, Penicillinase+) | MIC ([5]; isolate 24 S. aureus Basal MICs, Penicillinase+) | MIC ([6]; isolate 25 E. faecalis Basal MICs)

CCCCCCCCCC(=O)N[C@@H](Cc1c[nH]c2ccccc12)C(=O)N[C@H](CC(N)=O)C(=O)N[C@@H](CC(=O)O)C(=O)N[C@@H]1C(=O)NCC(=O)N[C@@H](CCCN)C(=O)N[C@@H](CC(=O)O)C(=O)N[C@H](C)C(=O)N[C@@H](CC(=O)O)C(=O)NCC(=O)N[C@H](CO)C(=O)N[C@@H]([C@H](C)CC(=O)O)C(=O)N[C@@H](CC(=O)c2ccccc2N)C(=O)O[C@@H]1C [daptomycin]
64 µg/mL: MIC ([7]; ATCC29213, S. aureus ARC12 (CLSI QC strain, ATCC 29213), surfactant 2.5%) | MIC ([7]; ATCC29213, S. aureus ARC12 (CLSI QC strain, ATCC 29213), surfactant 10%) | MIC ([7]; MRSA, S. aureus ARC516 (MRSA, quinolone-resistant), surfactant 2.5%)
0.5 µg/mL: MIC ([7]; ATCC29213, S. aureus ARC12 (CLSI QC strain, ATCC 29213), surfactant 0%) | MIC ([7]; MRSA, S. aureus ARC516 (MRSA, quinolone-resistant), surfactant 0%)
16 µg/mL: MIC ([7]; ATCC29213, S. aureus ARC12 (CLSI QC strain, ATCC 29213), surfactant 1%) | MIC ([7]; MRSA, S. aureus ARC516 (MRSA, quinolone-resistant), surfactant 1%)
> 64 µg/mL: MIC ([7]; ATCC29213, S. aureus ARC12 (CLSI QC strain, ATCC 29213), surfactant 5%) | MIC ([7]; MRSA, S. aureus ARC516 (MRSA, quinolone-resistant), surfactant 5%) | MIC ([7]; MRSA, S. aureus ARC516 (MRSA, quinolone-resistant), surfactant 10%)
32 fold: MIC increase in pulmonary surfactant ([7]; S. aureus, 1% pulmonary surfactant)

Colistin
2 µg/mL: MIC ([1]; isolate 21 P. aeruginosa KPC-2)
0.5 µg/mL: MIC ([1]; isolate 17 P. aeruginosa Derepressed AmpC) | MIC ([2]; isolate 10 K. pneumoniae TEM-4) | MIC ([3]; isolate 5 E. coli CTX-M-15) | MIC ([3]; isolate 7 E. coli SHV-12)
1 µg/mL: MIC ([1]; isolate 16 P. aeruginosa Basal MICs) | MIC ([1]; isolate 18 P. aeruginosa Derepressed AmpC) | MIC ([1]; isolate 19 P. aeruginosa PER) | MIC ([1]; isolate 20 P. aeruginosa KPC-2)
0.25 µg/mL: MIC ([2]; isolate 9 K. pneumoniae Basal MICs) | MIC ([2]; isolate 11 K. pneumoniae CTX-M-15) | MIC ([2]; isolate 12 K. pneumoniae SHV-12) | MIC ([2]; isolate 13 K. pneumoniae KPC-3) | MIC ([2]; isolate 14 K. pneumoniae KPC-3) | MIC ([2]; isolate 15 K. pneumoniae KPC-2) | MIC ([3]; isolate 4 E. coli Basal MICs) | MIC ([3]; isolate 6 E. coli TEM-4) | MIC ([3]; isolate 8 E. coli SHV-2) | MIC ([4]; isolate 1 E. cloacae Basal MICs) | MIC ([4]; isolate 2 E. cloacae Derepressed AmpC) | MIC ([4]; isolate 3 E. cloacae Derepressed AmpC)
